Reference: paper PMC11397024, “Strategic Fluorination to Achieve a Potent, Selective, Metabolically Stable, and Orally Bioavailable Inhibitor of CSNK2” (Molecules, 2024)

Experiments:
Experiment in all cases: NanoBRET K192
Type in all cases: cell-based
Settings in all cases: HEK293
AKT2 = molecular target: T1, AKT2 (Homo sapiens, UniProt P31751)
T1 construct: purchased Promega (NanoBRET Target Engagement K192 Kinase Selectivity System)
Summary of the method: (§1)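 HEK293 cells were transfected overnight with NanoLuc–kinase fusion vectors, then treated for 2 h at 37 °C with compound (added as 100 μM working solution) plus K10 tracer. BRET was read at 450/610 nm after substrate and extracellular inhibitor, and fractional occupancy was calculated against no-compound controls.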

CDK18 + Y = molecular target: T2, CDK18 + Y (Homo sapiens, UniProt Q07002)
T2 construct: purchased Promega (NanoBRET Target Engagement K192 Kinase Selectivity System)
Summary of the method: as §1

CDK20 + H = molecular target: T3, CDK20 + H (Homo sapiens, UniProt Q8IZL9)
T3 construct: purchased Promega (NanoBRET Target Engagement K192 Kinase Selectivity System)
Summary of the method: as §1

CSNK1D = molecular target: T4, CSNK1D (Homo sapiens, UniProt P48730)
T4 construct: purchased Promega (NanoBRET Target Engagement K192 Kinase Selectivity System)
Summary of the method: as §1

CSNK1G2 = molecular target: T5, CSNK1G2 (Homo sapiens, UniProt P78368)
T5 construct: purchased Promega (NanoBRET Target Engagement K192 Kinase Selectivity System)
Summary of the method: as §1

FGFR1 = molecular target: T6, FGFR1 (Homo sapiens, UniProt P11362)
T6 construct: purchased Promega (NanoBRET Target Engagement K192 Kinase Selectivity System)
Summary of the method: as §1

FGFR4 = molecular target: T7, FGFR4 (Homo sapiens, UniProt P22455)
T7 construct: purchased Promega (NanoBRET Target Engagement K192 Kinase Selectivity System)
Summary of the method: as §1

HIPK3 = molecular target: T8, HIPK3 (Homo sapiens, UniProt Q9H422)
T8 construct: purchased Promega (NanoBRET Target Engagement K192 Kinase Selectivity System)
Summary of the method: as §1

MAP3K10 = molecular target: T9, MAP3K10 (Homo sapiens, UniProt Q02779)
T9 construct: host or cells: HEK293
Summary of the method: as §1

MAP3K19 = molecular target: T10, MAP3K19 (Homo sapiens, UniProt Q56UN5)
T10 construct: purchased Promega (NanoBRET Target Engagement K192 Kinase Selectivity System)
Summary of the method: as §1

MAP3K21 = molecular target: T11, MAP3K21 (Homo sapiens, UniProt Q5TCX8)
T11 construct: purchased Promega (NanoBRET Target Engagement K192 Kinase Selectivity System)
Summary of the method: as §1

MAP3K3 = molecular target: T12, MAP3K3 (Homo sapiens, UniProt Q99759)
T12 construct: purchased Promega (NanoBRET Target Engagement K192 Kinase Selectivity System)
Summary of the method: as §1

MARK2 = molecular target: T13, MARK2 (Homo sapiens, UniProt Q7KZI7)
T13 construct: purchased Promega (NanoBRET Target Engagement K192 Kinase Selectivity System)
Summary of the method: as §1

MAST3 = molecular target: T14, MAST3 (Homo sapiens, UniProt O60307)
T14 construct: purchased Promega (NanoBRET Target Engagement K192 Kinase Selectivity System)
Summary of the method: as §1

MAST4 = molecular target: T15, MAST4 (Homo sapiens, UniProt O15021)
T15 construct: purchased Promega (NanoBRET Target Engagement K192 Kinase Selectivity System)
Summary of the method: as §1

MERTK = molecular target: T16, MERTK (Homo sapiens, UniProt Q12866)
T16 construct: purchased Promega (NanoBRET Target Engagement K192 Kinase Selectivity System)
Summary of the method: as §1

MYLK3 = molecular target: T17, MYLK3 (Homo sapiens, UniProt Q32MK0)
T17 construct: purchased Promega (NanoBRET Target Engagement K192 Kinase Selectivity System)
Summary of the method: as §1

NUAK1 = molecular target: T18, NUAK1 (Homo sapiens, UniProt O60285)
T18 construct: purchased Promega (NanoBRET Target Engagement K192 Kinase Selectivity System)
Summary of the method: as §1

PRKAA1 = molecular target: T19, PRKAA1 (Homo sapiens, UniProt Q13131)
T19 construct: purchased Promega (NanoBRET Target Engagement K192 Kinase Selectivity System)
Summary of the method: as §1

RPS6KA2 = molecular target: T20, RPS6KA2 (Homo sapiens, UniProt Q15349)
T20 construct: purchased Promega (NanoBRET Target Engagement K192 Kinase Selectivity System)
Summary of the method: as §1

RPS6KA3 = molecular target: T21, RPS6KA3 (Homo sapiens, UniProt P51812)
T21 construct: purchased Promega (NanoBRET Target Engagement K192 Kinase Selectivity System)
Summary of the method: as §1

SBK3 = molecular target: T22, SBK3 (Homo sapiens, UniProt P0C264)
T22 construct: purchased Promega (NanoBRET Target Engagement K192 Kinase Selectivity System)
Summary of the method: as §1

STK10 = molecular target: T23, STK10 (Homo sapiens, UniProt O94804)
T23 construct: purchased Promega (NanoBRET Target Engagement K192 Kinase Selectivity System)
Summary of the method: as §1

STK3 = molecular target: T24, STK3 (Homo sapiens, UniProt Q13188)
T24 construct: purchased Promega (NanoBRET Target Engagement K192 Kinase Selectivity System)
Summary of the method: as §1

STK36 = molecular target: T25, STK36 (Homo sapiens, UniProt Q9NRP7)
T25 construct: host or cells: HEK293
Summary of the method: as §1

TNK1 = molecular target: T26, TNK1 (Homo sapiens, UniProt Q13470)
T26 construct: purchased Promega (NanoBRET Target Engagement K192 Kinase Selectivity System)
Summary of the method: as §1

ULK2 = molecular target: T27, ULK2 (Homo sapiens, UniProt Q8IYT8)
T27 construct: purchased Promega (NanoBRET Target Engagement K192 Kinase Selectivity System)
Summary of the method: as §1

WEE2 = molecular target: T28, WEE2 (Homo sapiens, UniProt P0C1S8)
T28 construct: purchased Promega (NanoBRET Target Engagement K192 Kinase Selectivity System)
Summary of the method: as §1

T13 sequence (Q7KZI7 whole entry): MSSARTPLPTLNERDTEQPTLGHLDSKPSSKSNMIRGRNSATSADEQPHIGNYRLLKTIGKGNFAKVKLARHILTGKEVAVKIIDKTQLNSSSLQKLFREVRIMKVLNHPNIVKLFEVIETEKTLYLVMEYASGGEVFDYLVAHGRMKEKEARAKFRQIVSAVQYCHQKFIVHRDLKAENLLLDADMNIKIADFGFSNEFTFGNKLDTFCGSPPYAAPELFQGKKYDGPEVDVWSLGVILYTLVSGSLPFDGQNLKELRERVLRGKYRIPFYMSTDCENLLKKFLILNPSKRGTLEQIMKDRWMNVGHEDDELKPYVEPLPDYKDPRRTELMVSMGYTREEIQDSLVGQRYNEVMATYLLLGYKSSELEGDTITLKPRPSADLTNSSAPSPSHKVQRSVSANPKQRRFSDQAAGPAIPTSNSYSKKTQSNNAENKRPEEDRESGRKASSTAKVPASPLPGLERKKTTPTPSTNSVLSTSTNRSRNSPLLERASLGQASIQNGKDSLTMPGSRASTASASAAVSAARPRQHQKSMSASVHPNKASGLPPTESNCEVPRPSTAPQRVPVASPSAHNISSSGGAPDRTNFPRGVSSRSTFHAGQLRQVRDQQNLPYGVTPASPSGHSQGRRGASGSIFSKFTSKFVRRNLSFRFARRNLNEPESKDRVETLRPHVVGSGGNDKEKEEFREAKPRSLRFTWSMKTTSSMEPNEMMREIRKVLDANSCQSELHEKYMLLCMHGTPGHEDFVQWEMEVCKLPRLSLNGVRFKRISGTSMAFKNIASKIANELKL
T20 sequence (Q15349 whole entry): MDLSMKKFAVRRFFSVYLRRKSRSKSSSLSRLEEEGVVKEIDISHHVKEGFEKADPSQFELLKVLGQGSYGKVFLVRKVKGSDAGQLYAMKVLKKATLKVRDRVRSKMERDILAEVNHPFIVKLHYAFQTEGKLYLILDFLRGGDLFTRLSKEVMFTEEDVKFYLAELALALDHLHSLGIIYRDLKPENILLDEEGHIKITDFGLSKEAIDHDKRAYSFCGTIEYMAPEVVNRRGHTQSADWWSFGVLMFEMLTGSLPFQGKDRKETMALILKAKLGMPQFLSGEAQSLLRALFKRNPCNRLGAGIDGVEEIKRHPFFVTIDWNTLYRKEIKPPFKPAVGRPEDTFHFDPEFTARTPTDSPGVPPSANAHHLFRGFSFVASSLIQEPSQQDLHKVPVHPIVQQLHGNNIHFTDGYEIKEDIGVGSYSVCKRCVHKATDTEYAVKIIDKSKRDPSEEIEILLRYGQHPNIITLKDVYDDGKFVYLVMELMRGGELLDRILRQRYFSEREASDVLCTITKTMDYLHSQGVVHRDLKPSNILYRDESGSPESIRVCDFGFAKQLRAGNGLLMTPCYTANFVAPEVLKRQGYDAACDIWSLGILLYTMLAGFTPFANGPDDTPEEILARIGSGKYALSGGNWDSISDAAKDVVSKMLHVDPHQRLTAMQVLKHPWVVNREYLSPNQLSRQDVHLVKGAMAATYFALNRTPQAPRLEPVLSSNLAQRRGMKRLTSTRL
T15 sequence (O15021 whole entry): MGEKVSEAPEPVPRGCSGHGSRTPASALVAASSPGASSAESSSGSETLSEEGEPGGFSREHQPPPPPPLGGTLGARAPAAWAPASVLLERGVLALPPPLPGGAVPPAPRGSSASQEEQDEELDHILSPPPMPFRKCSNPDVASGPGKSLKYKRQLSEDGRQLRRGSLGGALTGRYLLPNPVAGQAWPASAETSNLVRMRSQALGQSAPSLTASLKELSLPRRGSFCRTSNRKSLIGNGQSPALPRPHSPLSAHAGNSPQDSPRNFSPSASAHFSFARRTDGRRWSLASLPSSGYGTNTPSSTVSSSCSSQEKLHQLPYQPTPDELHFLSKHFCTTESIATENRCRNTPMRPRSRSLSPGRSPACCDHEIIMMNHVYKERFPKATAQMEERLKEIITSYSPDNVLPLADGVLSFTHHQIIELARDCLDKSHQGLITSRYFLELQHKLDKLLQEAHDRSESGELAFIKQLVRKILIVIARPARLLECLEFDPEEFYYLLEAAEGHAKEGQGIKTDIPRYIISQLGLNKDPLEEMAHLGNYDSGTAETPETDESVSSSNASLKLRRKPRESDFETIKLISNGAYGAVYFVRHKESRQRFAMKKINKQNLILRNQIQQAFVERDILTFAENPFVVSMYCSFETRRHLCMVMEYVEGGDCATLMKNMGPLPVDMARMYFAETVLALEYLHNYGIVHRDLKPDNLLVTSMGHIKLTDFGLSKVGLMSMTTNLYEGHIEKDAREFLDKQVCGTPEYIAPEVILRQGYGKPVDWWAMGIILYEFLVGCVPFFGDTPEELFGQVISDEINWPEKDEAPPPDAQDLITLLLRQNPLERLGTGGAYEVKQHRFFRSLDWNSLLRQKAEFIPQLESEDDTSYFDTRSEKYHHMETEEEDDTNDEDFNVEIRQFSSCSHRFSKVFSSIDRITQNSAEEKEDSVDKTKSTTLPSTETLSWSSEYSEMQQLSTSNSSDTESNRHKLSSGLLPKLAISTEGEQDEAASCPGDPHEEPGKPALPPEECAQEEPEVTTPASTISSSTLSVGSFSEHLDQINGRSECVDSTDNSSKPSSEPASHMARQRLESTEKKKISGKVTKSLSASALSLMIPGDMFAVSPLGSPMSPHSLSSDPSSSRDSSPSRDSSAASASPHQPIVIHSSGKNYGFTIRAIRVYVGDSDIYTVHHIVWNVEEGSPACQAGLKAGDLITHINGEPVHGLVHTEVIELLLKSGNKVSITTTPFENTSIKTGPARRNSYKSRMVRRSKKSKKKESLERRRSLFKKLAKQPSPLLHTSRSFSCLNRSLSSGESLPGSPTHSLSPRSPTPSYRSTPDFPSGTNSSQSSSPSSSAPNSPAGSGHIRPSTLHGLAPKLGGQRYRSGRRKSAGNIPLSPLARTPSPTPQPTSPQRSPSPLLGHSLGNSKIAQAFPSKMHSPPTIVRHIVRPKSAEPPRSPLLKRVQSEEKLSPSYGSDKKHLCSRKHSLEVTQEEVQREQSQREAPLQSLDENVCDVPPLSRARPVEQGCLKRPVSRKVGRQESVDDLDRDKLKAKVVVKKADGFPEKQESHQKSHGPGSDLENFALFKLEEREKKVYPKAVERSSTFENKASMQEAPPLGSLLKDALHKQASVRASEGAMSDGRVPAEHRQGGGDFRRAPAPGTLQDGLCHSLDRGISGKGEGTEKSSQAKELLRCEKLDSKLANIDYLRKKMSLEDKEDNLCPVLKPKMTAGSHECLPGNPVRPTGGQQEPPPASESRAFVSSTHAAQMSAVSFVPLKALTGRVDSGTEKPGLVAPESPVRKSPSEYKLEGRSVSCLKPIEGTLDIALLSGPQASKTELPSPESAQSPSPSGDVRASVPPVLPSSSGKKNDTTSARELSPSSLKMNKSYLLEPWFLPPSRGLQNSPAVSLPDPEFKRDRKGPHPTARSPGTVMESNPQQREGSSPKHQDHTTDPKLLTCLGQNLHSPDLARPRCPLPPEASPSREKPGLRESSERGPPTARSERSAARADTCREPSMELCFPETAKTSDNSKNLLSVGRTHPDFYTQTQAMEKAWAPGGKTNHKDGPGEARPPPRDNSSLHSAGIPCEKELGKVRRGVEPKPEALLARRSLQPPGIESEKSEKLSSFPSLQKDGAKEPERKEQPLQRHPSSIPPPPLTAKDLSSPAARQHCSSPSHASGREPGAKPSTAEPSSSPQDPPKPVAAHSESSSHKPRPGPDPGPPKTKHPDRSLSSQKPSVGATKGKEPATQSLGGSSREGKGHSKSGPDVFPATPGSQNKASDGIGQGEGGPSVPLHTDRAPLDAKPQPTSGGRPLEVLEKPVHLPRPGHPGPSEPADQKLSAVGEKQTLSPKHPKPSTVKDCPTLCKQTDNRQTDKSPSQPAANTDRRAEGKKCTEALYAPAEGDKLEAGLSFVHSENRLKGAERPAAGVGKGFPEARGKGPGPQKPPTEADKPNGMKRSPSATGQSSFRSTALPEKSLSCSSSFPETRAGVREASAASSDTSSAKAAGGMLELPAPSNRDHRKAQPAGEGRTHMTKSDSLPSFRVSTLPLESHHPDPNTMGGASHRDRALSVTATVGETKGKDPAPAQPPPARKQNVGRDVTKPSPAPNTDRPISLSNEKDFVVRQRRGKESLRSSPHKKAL
T21 sequence (P51812 whole entry): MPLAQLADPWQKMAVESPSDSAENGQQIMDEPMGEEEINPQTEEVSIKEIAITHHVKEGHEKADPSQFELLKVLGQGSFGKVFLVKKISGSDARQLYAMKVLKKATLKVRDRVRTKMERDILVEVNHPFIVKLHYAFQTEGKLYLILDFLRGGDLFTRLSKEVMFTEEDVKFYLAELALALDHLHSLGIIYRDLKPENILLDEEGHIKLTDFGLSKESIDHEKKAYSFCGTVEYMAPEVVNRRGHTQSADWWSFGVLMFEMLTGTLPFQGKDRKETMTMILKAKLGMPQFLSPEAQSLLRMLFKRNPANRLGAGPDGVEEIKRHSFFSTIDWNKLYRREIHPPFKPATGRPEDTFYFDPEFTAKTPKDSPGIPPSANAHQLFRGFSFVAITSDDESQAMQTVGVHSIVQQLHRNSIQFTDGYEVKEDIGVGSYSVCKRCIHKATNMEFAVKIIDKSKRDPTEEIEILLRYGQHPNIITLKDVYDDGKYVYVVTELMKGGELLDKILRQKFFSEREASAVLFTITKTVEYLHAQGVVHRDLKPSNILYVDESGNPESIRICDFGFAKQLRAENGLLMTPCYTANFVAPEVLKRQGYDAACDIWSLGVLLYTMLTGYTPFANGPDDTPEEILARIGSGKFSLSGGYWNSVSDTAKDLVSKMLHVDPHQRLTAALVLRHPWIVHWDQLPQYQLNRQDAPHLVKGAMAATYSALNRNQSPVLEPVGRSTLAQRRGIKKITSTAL

## CCC(=O)Nc1cc(Nc2cc(NC3CC3)n3ncc(C#N)c3n2)c(F)cc1N1CCC[C@H](NC)C1 [Compound 2, (S)-N-(5-((3-cyano-7-(cyclopropylamino)pyrazolo[1,5-a]pyrimidin-5-yl)amino)-4-fluoro-2-(3-(methylamino)piperidin-1-yl)phenyl)propionamide]
AKT2
  receptor occupancy at 10 µM: 5.3%
CDK18 + Y
  receptor occupancy at 10 µM: 17.5%
CDK20 + H
  receptor occupancy at 10 µM: 23.4%
CSNK1D
  receptor occupancy at 10 µM: 9.4%
CSNK1G2
  receptor occupancy at 10 µM: 21.8%
FGFR1
  receptor occupancy at 10 µM: 10.4%
FGFR4
  receptor occupancy at 10 µM: 8.2%
HIPK3
  receptor occupancy at 10 µM: 25.5%
MAP3K10
  receptor occupancy at 10 µM: -2.4%
MAP3K19
  receptor occupancy at 10 µM: 2.4%
MAP3K21
  receptor occupancy at 10 µM: 4.8%
MAP3K3
  receptor occupancy at 10 µM: 10.1%
MARK2
  receptor occupancy at 10 µM: 14.2%
MAST3
  receptor occupancy at 10 µM: -0.9%
MAST4
  receptor occupancy at 10 µM: 11.4%
MERTK
  receptor occupancy at 10 µM: 4.2%
MYLK3
  receptor occupancy at 10 µM: 0.4%
NUAK1
  receptor occupancy at 10 µM: -1.7%
PRKAA1
  receptor occupancy at 10 µM: 3.8%
RPS6KA2
  receptor occupancy at 10 µM: 2.4%
RPS6KA3
  receptor occupancy at 10 µM: 1.8%
SBK3
  receptor occupancy at 10 µM: 15.9%
STK10
  receptor occupancy at 10 µM: 14.4%
STK3
  receptor occupancy at 10 µM: 5.2%
STK36
  receptor occupancy at 10 µM: -7.6%
TNK1
  receptor occupancy at 10 µM: 6.8%
ULK2
  receptor occupancy at 10 µM: 15.5%
WEE2
  receptor occupancy at 10 µM: 4.5%
